Legend:
oesophageal cancer [1] = assay: Response to normal cisplatin chemotherapy in combination with radiation; format: in vivo, patients; settings: Patient No. 1, after 2 months
Description: (§1) Patient No. 1 had oesophageal cancer, with one large lesion in the mediastinal region and large metastases in the liver. F-18-DG imaging confirmed the presence of both lesions. The patient was injected with ^195mPt-Cisplatin (100 MBq; specific activity 4.2 MBq/mg cisplatin) and imaged over a 5 day period. […] The patient was placed on a normal cisplatin chemotherapy in combination with radiation.

oesophageal cancer [2] = assay: Pilot clinical study: imaging of uptake of ^195mPt-Cisplatin in lesions; format: in vivo, patients
Description: As part of a pilot study to evaluate the use of ^195mPt-Cisplatin and ^195mPt Carboplatin for prognosis of cancer, two patients were injected with ^195mPt-Cisplatin prepared as described in Example 2.
as §1
Patient No. 2 had oesophageal cancer. CT confirmed a large lesion in the mediastinal region. The patient was injected with ^195mPt-Cisplatin (50 MBq: specific activity 3.6 MBq/mg cisplatin) and Imaged over a 3 day period. […] The patient has undergone cisplatin chemotherapy and is being monitored for response to treatment.

Row | Structure (SMILES) | response to treatment (oesophageal cancer [1]) | uptake of the radiolabelled cisplatin in lesions (oesophageal cancer [2]; Patient No. 1, lesion in mediastinal region and liver metastases, injected 100 MBq (4.2 MBq/mg cisplatin), imaged over a 5 day period) | uptake of the ^195mPt-Cisplatin in the mediastinal region (oesophageal cancer [2]; Patient No. 2, large lesion in mediastinal region, injected 50 MBq (3.6 MBq/mg cisplatin), imaged over a 3 day period)
1 | N.N.[Cl][Pt][Cl] [cisplatin, cis-dichlorodiammine-platinum(II)] | no evidence of response to treatment |  | 
2 | N.N.[Cl][195Pt][Cl] [^195mPt-Cisplatin, [^195mPt]Cisplatin] |  | negligible uptake | significant uptake

From patent US7108845B2, “Methods of synthesis and use of radiolabelled platinum chemotherapeutic agents” (Australian Nuclear Science & Technology Organisation, priority 2000, dated 2006)
